Experimental data as given in patent publication US20250197447A1, “PEPTIDE HAVING ANTI-AGING ACTIVITY, AND USE THEREOF” (CAREGEN CO., LTD., priority 2021, published 2025).

What was measured:
MMP-2 = test: Gelatin zymography of MMP-2 in culture medium after UV irradiation of fibroblasts; format: cell-based, mouse; settings: NIH3T3 cells, peptide 10, 50, 100 μM before 6 J/cm^2 UVA, 48 hours culture, FIGS. 4A, 4C
Method: (§1) The expression of MMP-1 and MMP-2 encoding proteins related to collagen degradation is increased by ultraviolet irradiation. Therefore, it was confirmed whether the synthesis of the MMP-1 and MMP-2 proteins was inhibited again and the cell aging phenomenon was inhibited when treated with the peptide of the present invention.
(§2) First, NIH3T3 cells were seeded in a 6-well plate at a cell density of 5×10^5 cell/well, and then the cells were cultured in DMEM medium containing 10% fetal bovine serum (FBS) for 24 hours. The cultured cells were washed once with serum free DMEM medium, and the peptide of the present invention was mixed in 1 mL of the serum free DMEM medium at each of concentrations of 10, 50, and 100 μM, and dispensed into the cells. A positive control (PC) was treated with 2.5 mM of N-Acetylcysteine (NaC) instead of the above peptide.
(§3) The cells were cultured in a CO2 incubator at 37° C. for 1 hour. The medium of the cultured cells was transferred to a tube, 1 ml of PBS was added, and irradiation was performed with 6 J/cm^2 of UVA using a UV irradiator (VILBER LOURMAT, Cat No.: 3102-BSU, France). After removing PBS, 900 μL of the medium transferred to the tube was added, and culture was performed in a CO2 incubator at 37° C. for 48 hours. […]

fibronectin = test: RT-PCR of fibronectin mRNA decreased by UV irradiation in fibroblasts; format: cell-based, mouse; settings: NIH3T3 cells; peptide 10, 50, 100 μM before 6 J/cm^2 UVA; 6 hours culture; FIGS. 2A, 2C
Method: (§4) Expression of collagen, fibronectin, and elastin genes constituting the extracellular matrix (ECM) is inhibited when irradiated with UV. Therefore, it was confirmed whether the photoaging phenomenon of the cells was inhibited by confirming whether the expression levels of collagen, fibronectin, and elastin genes were restored and increased when treated with the peptide of the present invention.
as §2, with “50 μM” for “2.5 mM”, “Quercetin” for “N-Acetylcysteine (NaC)”
(§5) The cells were cultured in a CO2 incubator at 37° C. for 1 hour. […] The amount of RNA isolated was quantified, 1,000 ng of RNA per tube was added, and reverse transcription into cDNA was performed using a kit (enzynomics, Cat. No.: RT200, Korea), and RT-PCR was performed using a PCR kit (enzynomics, Cat. No.: P581T, Korea). […]

MMP-1 [1] = test: Western blot of MMP-1 increased by UV irradiation in fibroblasts; format: cell-based, mouse; settings: NIH3T3 cells; peptide 10, 50, 100 μM before 6 J/cm^2 UVA; 48 hours culture; FIGS. 4A, 4B
Method: as §1, §2, §3

collagen (Col1a1) = test: RT-PCR of collagen (Col1a1) mRNA decreased by UV irradiation in fibroblasts; format: cell-based, mouse; settings: NIH3T3 cells; peptide 10, 50, 100 μM before 6 J/cm^2 UVA; 6 hours culture; FIGS. 2A, 2B
Method: as §4
as §2, with “50 μM” for “2.5 mM”, “Quercetin” for “N-Acetylcysteine (NaC)”
as §5

[2] = system: apoptotic-inducing factors (Cleaved PARP-1, Bax, Cleaved Caspase-3); test: Western blot of apoptotic-inducing factors increased by UV irradiation in NIH3T3 fibroblasts; format: cell-based, mouse; settings: peptide 10, 50, 100 μM before 6 J/cm^2 UVA, 48 hours culture, FIGS. 3A to 3D
Method: Expression of the apoptotic-inducing factors increases when irradiated with UV. Therefore, it was confirmed whether the photoaging phenomenon of the cells was inhibited and the damaged cells were regenerated by confirming whether the increased expression levels of the apoptotic-inducing factors such as cleaved PARP-1, cleaved Caspase-3, and […] decreased again when treated with the peptide of the present invention.
as §2
The cells were cultured in a CO2 incubator at 37° C. for 1 hour, the medium of the cultured cells was transferred to a tube, 1 mL of PBS was added, and then irradiation was performed with 6 J/cm^2 of UVA using a UV irradiator (VILBER LOURMAT, Cat No.: 3102-BSU, France). After removing PBS, 900 μL of the medium transferred to the tube was added again, and culture was performed in a CO2 incubator at 37° C. for 48 hours. […]

elastin = test: RT-PCR of elastin mRNA decreased by UV irradiation in fibroblasts; format: cell-based, mouse; settings: NIH3T3 cells; peptide 10, 50, 100 μM before 6 J/cm^2 UVA; 6 hours culture; FIGS. 2A, 2D
Method: as §4
as §2, with “50 μM” for “2.5 mM”, “Quercetin” for “N-Acetylcysteine (NaC)”
as §5

MMP-1 [3] = test: Western blot of MMP-1 increased by heat treatment in fibroblasts; format: cell-based, mouse; settings: NIH3T3 cells; peptide 10, 50, 100 μM for 24 hours before 44° C. for 40 minutes; 8 hours culture; FIGS. 5A, 5B
Method: The expression of MMP-1 encoding proteins related to collagen degradation increases by heat treatment. Therefore, it was confirmed whether the synthesis of the MMP-1 protein was inhibited again and the cell aging phenomenon was inhibited when treated with the peptide of the present invention.
as §2, with “(NaC) or 2 mM of Glutathione (GSH)” for “(NaC)”
The cells were cultured in a CO2 incubator at 37° C. for 24 hours. A lid and a lower plate of the 6-well plate were sealed with a paraffin film for heat treatment, the lower plate was immersed in a water bath at 44° C., and culture was performed for 40 minutes. After removing the medium, 1 mL of the serum free DMEM medium was added, and culture was performed in a CO2 incubator at 37° C. for 8 hours. Thereafter, the cells were washed twice with PBS, and then a cell lysis buffer was added to obtain a lysate. […]

[4] = system: NIH3T3 cells (mouse fibroblast cell line); test: Intracellular reactive oxygen species (ROS) level after UVA irradiation, DCFH-DA / FACS; format: cell-based; settings: peptide 10, 50, 100 μM for 1 hour before 8 J/cm^2 UVA, 24 hours culture, FIG. 1
Method: The reactive oxygen species level increases when UV is irradiated. Therefore, it was confirmed whether the reactive oxygen species level decreased again and the aging phenomenon caused by oxidative stress in cells was inhibited when treated with the peptide of the present invention.
as §2, with “NIH3T3 cells (mouse fibroblast cell line) were seeded” for “NIH3T3 cells were seeded”, “μM, and then dispensed into” for “μM, and dispensed into”, “treated with 7.5 mM of” for “treated with 2.5 mM of”
The cells were cultured in a CO2 incubator at 37° C. for 1 hour. The medium of the cultured cells was transferred to a tube, 1 ml of PBS was added, and irradiation was performed with 8 J/cm^2 of UVA using a UV irradiator (VILBER LOURMAT, Cat No.: 3102-BSU, France). After removing PBS, 900 μL of the medium transferred to the tube was treated again, and culture was performed in a CO2 incubator at 37° C. for 24 hours. […] After centrifugation, the cells were washed with PBS, and a fluorescence value was measured through FACS.

## LKKNGSCKRGPRTHYGQK [peptide of the present invention]
MMP-2
  expression and activity of MMP-2 increased by UV irradiation: inhibited
fibronectin
  mRNA expression of fibronectin decreased by UV irradiation: increased
MMP-1 [1]
  expression and activity of MMP-1 increased by UV irradiation: inhibited
Collagen (Col1a1)
  mRNA expression of collagen decreased by UV irradiation: increased
[2]
  expression of the apoptotic-inducing factors increased in the cells damaged by UV irradiation: decreased
elastin
  mRNA expression of elastin decreased by UV irradiation: increased
MMP-1 [3]
  amount of MMP-1 protein whose expression was increased by heat treatment: decreased
[4]
  intracellular reactive oxygen species level increased by ultraviolet irradiation: decreased
